Experimental data: patent US7763611B2, “Aroylsemicarbazide derivatives against thromboembolic diseases” (Merck Patent GmbH, priority 2003, dated 2010)

Tests used:
[1] = target: FXa (Homo sapiens, UniProt P00742); assay: Factor Xa inhibition (FXa-IC50); format: biochemical
Text: The inhibition of factor Xa by the compounds according to the invention and the measurement of the anticoagulant and antithrombotic activity can be determined by conventional in-vitro or in-vivo methods. A suitable method is described, for example, by J. Hauptmann et al. in Thrombosis and Haemostasis 1990, 63, 220-223.
The inhibition of factor Xa can be measured, for example by the method of T. Hara et al. in Thromb. Haemostas. 1994, 71, 314-319.

[2] = target: TF/FVIIa (Homo sapiens, UniProt P08709); assay: TF/FVIIa inhibition (TF/FVIIa-IC50); format: biochemical
TF/FVIIa, sequence (P08709 213-466 limits assumed): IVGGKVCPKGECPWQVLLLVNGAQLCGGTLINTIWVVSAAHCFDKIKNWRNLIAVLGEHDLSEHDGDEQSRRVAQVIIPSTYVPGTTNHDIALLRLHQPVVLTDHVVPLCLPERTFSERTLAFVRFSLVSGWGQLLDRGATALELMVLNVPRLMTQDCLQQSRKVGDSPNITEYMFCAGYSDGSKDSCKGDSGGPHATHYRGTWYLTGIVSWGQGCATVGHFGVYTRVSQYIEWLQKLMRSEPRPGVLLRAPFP
TF/FVIIa, sequence (P08709 61-212 limits assumed): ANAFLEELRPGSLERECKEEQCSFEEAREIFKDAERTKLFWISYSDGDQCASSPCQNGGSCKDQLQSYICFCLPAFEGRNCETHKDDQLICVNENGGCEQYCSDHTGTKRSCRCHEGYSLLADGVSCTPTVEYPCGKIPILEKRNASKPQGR
TF/FVIIa, sequence (P13726 33-295 partner): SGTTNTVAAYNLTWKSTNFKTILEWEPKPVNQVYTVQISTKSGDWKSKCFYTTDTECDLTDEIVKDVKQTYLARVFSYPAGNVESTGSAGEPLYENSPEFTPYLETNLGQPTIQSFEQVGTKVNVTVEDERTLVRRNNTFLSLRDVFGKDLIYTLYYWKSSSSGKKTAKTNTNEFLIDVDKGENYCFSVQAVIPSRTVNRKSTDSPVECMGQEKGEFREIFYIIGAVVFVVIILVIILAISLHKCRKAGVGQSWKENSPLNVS
Text: The inhibition of factor VIIa by the compounds according to the invention and the measurement of the anticoagulant and antithrombotic activity can be determined by conventional in-vitro or in-vivo methods. A conventional method for the measurement of the inhibition of factor VIIa is described, for example, by H. F. Ronning et al. in Thrombosis Research 1996, 84, 73-81.

FXa, sequence (P00742 235-488 limits assumed): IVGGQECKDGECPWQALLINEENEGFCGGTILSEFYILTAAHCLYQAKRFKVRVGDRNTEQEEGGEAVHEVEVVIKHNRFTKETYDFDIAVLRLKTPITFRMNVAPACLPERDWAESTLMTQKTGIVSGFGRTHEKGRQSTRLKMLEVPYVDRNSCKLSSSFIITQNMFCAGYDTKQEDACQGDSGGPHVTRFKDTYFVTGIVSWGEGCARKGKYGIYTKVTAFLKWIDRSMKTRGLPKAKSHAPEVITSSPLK
FXa, sequence (P00742 41-179 limits assumed): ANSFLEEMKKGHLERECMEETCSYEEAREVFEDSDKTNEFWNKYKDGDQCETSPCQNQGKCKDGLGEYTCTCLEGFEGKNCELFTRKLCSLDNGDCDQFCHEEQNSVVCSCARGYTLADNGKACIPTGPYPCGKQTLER

IC50 [1] | IC50 [2] | melting point | SMILES
390 nM | 830 nM | 101 to 102 °C | CCCN(NC(=O)c1ccc(Cl)s1)C(=O)Nc1ccc(N2CCOCC2=O)cc1 [Compound A1, 1-(5-chlorothien-2-ylcarbonyl)-4-[4-(3-oxomorpholin-4-yl)phenyl]-2-propylsemicarbazide]
570 nM | 1000 nM |  | C#CCN(NC(=O)c1ccc(Cl)s1)C(=O)Nc1ccc(N2CCOCC2=O)c(C)c1 [Compound A2, 1-(5-chlorothien-2-ylcarbonyl)4-[3-methyl-4-(3-oxomorpholin4-yl)-phenyl]-2-(prop-2-ynyl)semicarbazide]
87 nM | 180 nM |  | Cc1cc(NC(=O)N(Cc2ccccc2)NC(=O)c2sccc2Cl)ccc1N1CCOCC1=O [Compound A3, 1-(3-chlorothien-2-ylcarbonyl)4-[3-methyl4-(3-oxomorpholin4-yl)-phenyl]-2-benzylsemicarbazide]
